Experimental data published in patent EP0081321A1, “2-Aminophenol derivatives” (ONO PHARMACEUTICAL CO., LTD., priority 1981, dated 1983).
Where a name gives a salt, the structure may show the parent alone.

What follows are compounds tested on mice (assay: acute toxicity by intravenous injection). Details: intravenous injection to tail vein, doses of 30 mg/Kg.
Assay type: in vivo
Procedure: On the other hand, all extent of the compounds of the present invention were confirmed that their acute toxicities were more than 30 mg/Kg by intravenous injection. Therefore, the compounds of the present invention may be considered to be sufficiently safe and suitable for medical use.

Structure (SMILES) | dead cases in test of acute toxicity
CCOC(=O)/C=C/c1cc(Cl)cc(N)c1O.Cl [Example 1(a), 2-Amino-4-chloro-6-[2-ethoxycarbonyl-(1E)-vinyl]phenol hydrochloride] | no dead case in 21 cases
CCOC(=O)/C=C/C=C/c1cc(Cl)cc(N)c1O [Example 1(b), 2-Amino-4-chloro-6-[4-ethoxycarbonyl-(lE, 3E)-butadienyl]phenol hydrochloride] | no dead case in 21 cases
COC(=O)/C=C/c1cc(N)c(O)c(OC)c1.Cl [Example 1(e), 2-Amino-6-methoxy-4-[2-methoxycarbonyl-(1E)-vinyl]phenol hydrochloride] | no dead case in 21 cases

The compounds below were run on cyclooxygenase (assay: standard assay system using polymorphonuclear leukocytes, HHT or TXB2 production). Details: polymorphonuclear leukocytes from guinea pig (whole cells), [1-14C] arachidonic acid, 37°C, 5 minutes; production of HHT or TXB2; read-out: concentrations for 50% inhibitions on cyclooxygenase.
Assay type: cell-based
Procedure: Therefore, it is comfirmed that the compound (a) inhibits both enzymes at the same time at a very low concentration, and that the compounds (b), (c) and (d) inhibit 5-lipoxygenase slightly specifically at a very low concentration.
The experiments for screening using polymorphonuclear leukocytes were carried out as follows: The reaction mixture (0.1 ml) containing 5 µmole of potassium phosphase at pH 7.4, 0.1 µmole of calcium chloride, polymorphonuclear leukocytes prepared from guinea pigs (4 x 10^7 cells) and test compound was preincubated for 5 minutes at 37°C. The reaction was started by the addition of [1-^14C] arachidonic acid (2.2 x 10^3 dpm, 1.8 pmole), followed by the incubation at 37°C for 5 minutes. The reaction was terminated by the addition of 0.3 ml of a mixture of ether/methanol/lM citric acid (30/4/1). The organic phase (20 µl) was applied to silica gel plate. Thin layer chromatography was performed to separate each product with solvent system of ether/petroleum ether/acetic acid (85/15/0.1).
Activities of 5-lipoxygenase and cyclooxygenase were calculated from the measurements of the productions of 5-HETE, and 12L-hydroxy-5, 8, 10-[…] acid (i.e. HHT) or thromboxane B2 (i.e. TXB2) respectively. [it has been known that HHT and TXB2 were the last products of the system concerning cyclooxygenase in the arachidonate cascade.] The concentrations for 50% inhibitions on 5-lipoxygenase and on cyclooxygenase were evaluated by using the concentrations of compounds of the present invention required 50% inhibitions on the productions of 5-HETE, and HHT or TXB2.

Structure (SMILES) | IC50 [µM]
CCOC(=O)/C=C/c1ccc(O)c(N)c1 [Example 1(d), 2-Amino-4-[2-ethoxycarbonyl-(1E)-vinyl]-phenol hydrochloride] | 2.2
Nc1cc(/C=C/C(=O)OCc2ccc(-c3ccccc3)cc2)ccc1O [Example 1(h), 2-Amino-4-[2-[4-biphenylmethbxycarbonyl]-(1E)-vinyl]-phenol] | 10
CCOC(=O)/C=C/c1cc(Sc2ccccc2)cc(N)c1O [Example 1(j), 2-Amino-6-[2-ethoxycarbonyl-(lE)-vinyl]-4-phenylthiophenol hydrochloride] | 0.6
CCOC(=O)/C=C/c1cccc(N)c1O [Example 1, 2-Amino-6-[2-ethoxycarbonyl-(lE)-vinyl]-phenol hydrochloride] | 1
